The source of these data is US12673975B2, “Cyclic peptide, cell scaffold material, cell separating material, and medium” (FUJIFILM Corporation, priority 2019, dated 2026).

The structures appear in SMILES notation. Where two headings read alike, the source gives them in different places. Starred links: 1 amine or outer side, 2 acyl side, 3 side chain; linkers in the order of their positions; H or OH if unused. Positions of bridges follow the written chain, without caps; N, C: chain ends. Non-standard residues stand in square brackets, D forms with d. Residues, ends and D or L forms follow the SMILES beside them. Pen = CC(C)(S)[C@H](N)C(=O)O; hCys = N[C@@H](CCS)C(=O)O; Dab = NCC[C@H](N)C(=O)O; Dap = NC[C@H](N)C(=O)O; X1 = O=C(C[*:2])[*:1]; X2 = O=C(C[*:1])[*:2] A value given as a limit tells only on which side of the number the result lay.

Data set [1] can be described thus: Evaluation of molecule stability (alkali treatment, residual rate by LC/MS). To be noted: for Stability (molecule stability, residual rate of the cyclic peptide rank): alkali treatment, residual rate by LC/MS; for Performance evaluation: Stability (residual rate of cyclic peptide after alkali treatment): 500 μM peptide aqueous solution plus equivalent of 1 M sodium hydroxide, 15° C., 3 hours, LC/MS peak area. Type of data set: physicochemical. The gist of the method:
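500 μM aqueous cyclic peptide mixed with an equal volume of 1 M NaOH and held 3 h at 15 °C. Residual rate is total LC/MS peak area after treatment relative to untreated (100%), using a C18 column, pH 3 ammonium formate/acetonitrile gradient, 45 °C, ESI±.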

For data set [2], the target named is human integrin αvβ5 (Homo sapiens, UniProt P06756+P18084). Kind of data set: Evaluation of integrin binding property (surface plasmon resonance, Biacore 3000, immobilized cyclic peptide). The gist of the method:
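SPR with cyclic peptide amine-coupled via EDC/NHS to a CM5 chip, blank channel as reference. Integrin αvβ5 at 30, 100, 300 and 1,000 nM injected 10 min at 25 °C in HEPES buffer pH 7.4 with 5 mM MgCl2, 30 min buffer flow, EDTA regeneration; Kd from reference-subtracted signals, graded by category.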

Setting [3] is: surface plasmon resonance, immobilized cyclic peptide, human integrin αvβ5, read-out: Binding activity (integrin binding property, dissociation constant rank).
[4] abbreviates: SPR, 25° C., HEPES buffer with 5 mM magnesium chloride, integrin 30-1,000 nM, read-out: Performance evaluation: Binding activity (dissociation constant between the cyclic peptide and human integrin αvβ5).

Sequence of human integrin αvβ5 (P06756 31-1048): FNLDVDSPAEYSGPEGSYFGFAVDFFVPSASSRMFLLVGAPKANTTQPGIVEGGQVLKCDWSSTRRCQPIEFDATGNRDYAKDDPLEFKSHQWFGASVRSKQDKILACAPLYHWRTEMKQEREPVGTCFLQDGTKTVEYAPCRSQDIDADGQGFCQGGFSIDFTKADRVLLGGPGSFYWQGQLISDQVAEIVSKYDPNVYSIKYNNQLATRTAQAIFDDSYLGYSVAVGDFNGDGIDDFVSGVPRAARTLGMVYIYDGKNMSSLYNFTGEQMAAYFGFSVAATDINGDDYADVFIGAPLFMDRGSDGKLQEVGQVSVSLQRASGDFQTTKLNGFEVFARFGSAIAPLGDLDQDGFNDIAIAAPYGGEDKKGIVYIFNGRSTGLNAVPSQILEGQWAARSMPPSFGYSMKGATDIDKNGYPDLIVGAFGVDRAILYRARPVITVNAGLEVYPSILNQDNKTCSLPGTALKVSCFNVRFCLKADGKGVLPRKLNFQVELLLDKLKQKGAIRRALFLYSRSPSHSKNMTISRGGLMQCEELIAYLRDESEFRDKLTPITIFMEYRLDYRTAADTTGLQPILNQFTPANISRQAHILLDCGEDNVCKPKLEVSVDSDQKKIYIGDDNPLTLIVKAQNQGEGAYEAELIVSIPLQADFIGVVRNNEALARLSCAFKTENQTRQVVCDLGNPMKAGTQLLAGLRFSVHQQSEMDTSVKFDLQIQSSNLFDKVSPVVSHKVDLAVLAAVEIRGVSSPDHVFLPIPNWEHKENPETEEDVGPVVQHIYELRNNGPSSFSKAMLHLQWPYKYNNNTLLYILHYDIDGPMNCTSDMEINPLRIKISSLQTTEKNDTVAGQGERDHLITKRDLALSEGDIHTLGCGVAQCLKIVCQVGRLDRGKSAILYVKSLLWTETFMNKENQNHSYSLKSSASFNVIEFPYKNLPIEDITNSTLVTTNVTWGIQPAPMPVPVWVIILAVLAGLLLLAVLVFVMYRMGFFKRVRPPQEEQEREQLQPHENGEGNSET
Sequence of human integrin αvβ5 (P18084 24-799): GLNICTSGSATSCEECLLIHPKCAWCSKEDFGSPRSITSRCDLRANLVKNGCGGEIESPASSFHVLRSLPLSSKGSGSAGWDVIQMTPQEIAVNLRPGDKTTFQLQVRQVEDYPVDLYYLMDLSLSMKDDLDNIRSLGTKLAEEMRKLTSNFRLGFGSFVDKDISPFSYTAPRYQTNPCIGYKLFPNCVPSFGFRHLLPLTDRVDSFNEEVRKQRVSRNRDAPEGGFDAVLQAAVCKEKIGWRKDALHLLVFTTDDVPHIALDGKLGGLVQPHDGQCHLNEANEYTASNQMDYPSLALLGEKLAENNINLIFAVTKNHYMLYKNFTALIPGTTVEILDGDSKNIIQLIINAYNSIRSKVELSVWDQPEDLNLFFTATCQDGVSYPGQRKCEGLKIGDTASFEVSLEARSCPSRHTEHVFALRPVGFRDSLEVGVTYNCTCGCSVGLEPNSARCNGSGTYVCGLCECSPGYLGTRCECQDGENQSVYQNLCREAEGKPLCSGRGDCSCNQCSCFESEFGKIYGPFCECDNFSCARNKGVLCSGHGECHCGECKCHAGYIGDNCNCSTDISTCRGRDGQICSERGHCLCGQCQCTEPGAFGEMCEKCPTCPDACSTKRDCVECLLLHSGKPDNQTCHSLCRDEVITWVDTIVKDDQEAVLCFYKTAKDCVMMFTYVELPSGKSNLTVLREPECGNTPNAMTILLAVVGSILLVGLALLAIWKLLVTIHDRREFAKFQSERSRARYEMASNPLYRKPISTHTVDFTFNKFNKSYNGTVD

Take `CC[C@H](C)[C@@H]1NC(=O)[C@@H](NC(=O)[C@H](CCCCN)NC(=O)[C@H](CCCCN)NC(=O)[C@@H](N)CCCCN)CCSCC(=O)NCC[C@@H](C(=O)N[C@@H](C)C(=O)O)NC(=O)[C@H](C)NC(=O)[C@H](Cc2ccccc2)NC(=O)[C@H](CO)NC(=O)[C@H](CC(=O)O)NC(=O)CNC(=O)[C@H](CCCNC(=N)N)NC(=O)[C@@H]2CCCN2C1=O` [Cyclic peptide 163, KKK-(Hcy)-IPRGDSFA(Dab(acetyl))A] (H-KKK[hCys]IPRGDSFA[Dab]A-OH; linker 4-13 via X2): the “Stability (molecule stability, residual rate of the cyclic peptide rank)” value in data set [1] is reported as “A (The residual rate of the cyclic peptide is 70% or more.)”. The Kd in data set [2] (setting [3]) was under 50 nM.
As for `CC(C)[C@@H]1NC(=O)[C@@H](NC(=O)[C@H](C)NC(=O)[C@H](CCCCN)NC(=O)[C@H](CCCCN)NC(=O)[C@@H](N)CCCCN)CCNC(=O)CSC(C)(C)[C@@H](C(=O)N[C@@H](C)C(=O)O)NC(=O)[C@H](C)NC(=O)[C@H](Cc2ccccc2)NC(=O)[C@H]([C@@H](C)O)NC(=O)[C@H](CC(=O)O)NC(=O)CNC(=O)[C@H](CCCNC(=N)N)NC(=O)[C@@H]2CCCN2C1=O` [Cyclic peptide 136, KKKA(Dab(acetyl))VPRGDTFA-(Pen)-A] (H-KKKA[Dab]VPRGDTFA[Pen]A-OH; linker 5-14 via X1), the “Stability (molecule stability, residual rate of the cyclic peptide rank)” value in data set [1] was “A (The residual rate of the cyclic peptide is 70% or more.)”. For the same compound, in data set [2] (setting [3]), the Kd is under 50 nM.
In the case of `CC[C@H](C)[C@@H]1NC(=O)[C@@H](NC(=O)[C@H](C)NC(=O)[C@H](CCCCN)NC(=O)[C@H](CCCCN)NC(=O)[C@@H](N)CCCCN)CCSCC(=O)NCC[C@@H](C(=O)N[C@@H](C)C(=O)O)NC(=O)[C@H](C)NC(=O)[C@H](Cc2ccccc2)NC(=O)[C@H]([C@@H](C)O)NC(=O)[C@H](CC(=O)O)NC(=O)CNC(=O)[C@H](CCCNC(=N)N)NC(=O)[C@@H]2CCCN2C1=O` [Cyclic peptide 87, KKKA-(Hcy)-IPRGDTFA(Dab(acetyl))A] (H-KKKA[hCys]IPRGDTFA[Dab]A-OH; linker 5-14 via X2), the “Performance evaluation: Stability (residual rate of cyclic peptide after alkali treatment)” value in data set [1] is listed as “A (The residual rate of the cyclic peptide is 70% or more.)”. In data set [2] (setting [4]), the Kd is under 50 nM.
Consider `CC(C)[C@@H]1NC(=O)[C@@H](NC(=O)[C@H](C)NC(=O)[C@H](CCCCN)NC(=O)[C@H](CCCCN)NC(=O)[C@@H](N)CCCCN)CCNC(=O)CSCC[C@@H](C(=O)N[C@@H](C)C(=O)O)NC(=O)[C@H](C)NC(=O)[C@H](Cc2ccccc2)NC(=O)[C@H]([C@@H](C)O)NC(=O)[C@H](CC(=O)O)NC(=O)CNC(=O)[C@H](CCCNC(=N)N)NC(=O)[C@@H]2CCCN2C1=O` [Cyclic peptide 122, KKKA(Dab(acetyl))VPRGDTFA-(Hcy)-A] (H-KKKA[Dab]VPRGDTFA[hCys]A-OH; linker 5-14 via X1), for which, in data set [1], the “Stability (molecule stability, residual rate of the cyclic peptide rank)” value is “A (The residual rate of the cyclic peptide is 70% or more.)”. Moreover, in data set [2] (setting [3]), the Kd is under 50 nM.
For the compound `CC(C)[C@@H]1NC(=O)[C@@H](N)CCSCC(=O)NCC[C@@H](C(=O)N[C@@H](CCCCN)C(=O)N[C@@H](CCCCN)C(=O)N[C@@H](CCCCN)C(=O)O)NC(=O)[C@H](C)NC(=O)[C@H](Cc2ccccc2)NC(=O)[C@H]([C@@H](C)O)NC(=O)[C@H](CC(=O)O)NC(=O)CNC(=O)[C@H](CCCNC(=N)N)NC(=O)[C@@H]2CCCN2C1=O` [Cyclic peptide 103, (Hcy)-VPRGDTFA(Dab(acetyl))KKK] (H-[hCys]VPRGDTFA[Dab]KKK-OH; linker 1-10 via X2), in data set [1], the “Stability (molecule stability, residual rate of the cyclic peptide rank)” value is “A (The residual rate of the cyclic peptide is 70% or more.)”. In addition, in data set [2] (setting [3]), the Kd is under 50 nM.
As to `CC[C@H](C)[C@@H]1NC(=O)[C@@H](NC(=O)CNC(=O)[C@H](CCCCN)NC(=O)[C@H](CCCCN)NC(=O)[C@@H](N)CCCCN)CCSCC(=O)NCC[C@@H](C(=O)N[C@@H](C)C(=O)O)NC(=O)[C@H](CCCNC(=N)N)NC(=O)[C@H](Cc2ccccc2)NC(=O)[C@H]([C@@H](C)O)NC(=O)[C@H](CC(=O)O)NC(=O)CNC(=O)[C@H](CCCNC(=N)N)NC(=O)[C@@H]2CCCN2C1=O` [Cyclic peptide 54, KKKG-(Hcy)-IPRGDTFR(Dab(acetyl))A] (H-KKKG[hCys]IPRGDTFR[Dab]A-OH; linker 5-14 via X2), in data set [1], the “Performance evaluation: Stability (residual rate of cyclic peptide after alkali treatment)” value was “A (The residual rate of the cyclic peptide is 70% or more.)”. The Kd in data set [2] (setting [4]) was under 50 nM.
Regarding `CC[C@H](C)[C@@H]1NC(=O)[C@@H](NC(=O)CNC(=O)[C@H](CCCCN)NC(=O)[C@H](CCCCN)NC(=O)[C@@H](N)CCCCN)CCSCC(=O)NCC[C@@H](C(=O)N[C@@H](C)C(=O)O)NC(=O)[C@H](Cc2ccccc2)NC(=O)[C@H]([C@@H](C)O)NC(=O)[C@H](CC(=O)O)NC(=O)CNC(=O)[C@H](CCCNC(=N)N)NC(=O)[C@@H]2CCCN2C1=O` [Cyclic peptide 58, KKKG-(Hcy)-IPRGDTF(Dab(acetyl))A] (H-KKKG[hCys]IPRGDTF[Dab]A-OH; linker 5-13 via X2), in data set [1], the “Performance evaluation: Stability (residual rate of cyclic peptide after alkali treatment)” value is reported as “A (The residual rate of the cyclic peptide is 70% or more.)”. Besides, the Kd in data set [2] (setting [4]) was under 50 nM.
`C[C@H](NC(=O)[C@@H]1CCNC(=O)CSCC[C@H](NC(=O)[C@H](C)NC(=O)[C@H](CCCCN)NC(=O)[C@H](CCCCN)NC(=O)[C@@H](N)CCCCN)C(=O)N[C@@H]([C@@H](C)O)C(=O)N[C@@H]([C@@H](C)O)C(=O)N[C@@H](CCCNC(=N)N)C(=O)NCC(=O)N[C@@H](CC(=O)O)C(=O)N[C@@H](CO)C(=O)N[C@@H](Cc2ccccc2)C(=O)N[C@@H](C)C(=O)N1)C(=O)O` [Cyclic peptide 161, KKKA-(Hcy)-TTRGDSFA(Dab(acetyl))A] (H-KKKA[hCys]TTRGDSFA[Dab]A-OH; linker 5-14 via X2): in data set [1], the “Stability (molecule stability, residual rate of the cyclic peptide rank)” value was “A (The residual rate of the cyclic peptide is 70% or more.)”. Besides, the Kd in data set [2] (setting [3]) fell in the range of 50 to 100 nM.
In the case of `CC(C)[C@@H]1NC(=O)[C@@H](NC(=O)[C@H](CCCCN)NC(=O)[C@H](CCCCN)NC(=O)[C@@H](N)CCCCN)CCSCC(=O)NCC[C@@H](C(=O)O)NC(=O)[C@H](Cc2ccccc2)NC(=O)[C@H](CC(N)=O)NC(=O)[C@H](CC(=O)O)NC(=O)CNC(=O)[C@H](CCCNC(=N)N)NC(=O)[C@@H]2CCCN2C1=O` [Cyclic peptide 14, KKK-(Hcy)-VPRGDNF(Dab(acetyl))] (H-KKK[hCys]VPRGDNF[Dab]-OH; linker 4-12 via X2), the “Performance evaluation: Stability (residual rate of cyclic peptide after alkali treatment)” value in data set [1] is “A (The residual rate of the cyclic peptide is 70% or more.)”. For the same compound, the Kd in data set [2] is under 50 nM.
Regarding `C[C@H](NC(=O)[C@@H]1CCNC(=O)CSCC[C@H](NC(=O)CNC(=O)[C@H](CCCCN)NC(=O)[C@H](CCCCN)NC(=O)[C@@H](N)CCCCN)C(=O)N[C@@H](CCC(=O)O)C(=O)N2CCC[C@H]2C(=O)N[C@@H](CCCNC(=N)N)C(=O)NCC(=O)N[C@@H](CC(=O)O)C(=O)N[C@@H]([C@@H](C)O)C(=O)N[C@@H](Cc2ccccc2)C(=O)N[C@@H](CCCNC(=N)N)C(=O)N1)C(=O)O` [Cyclic peptide 69, KKKG-(Hcy)-EPRGDTFR(Dab(acetyl))A] (H-KKKG[hCys]EPRGDTFR[Dab]A-OH; linker 5-14 via X2), the “Performance evaluation: Stability (residual rate of cyclic peptide after alkali treatment)” value in data set [1] is “A (The residual rate of the cyclic peptide is 70% or more.)”. Moreover, in data set [2] (setting [4]), the Kd was under 50 nM.
As to `CC(C)[C@@H]1NC(=O)[C@@H](NC(=O)[C@H](C)NC(=O)[C@H](CCCCN)NC(=O)[C@H](CCCCN)NC(=O)[C@@H](N)CCCCN)CCNC(=O)CSC[C@@H](C(=O)N[C@@H](C)C(=O)O)NC(=O)[C@H](C)NC(=O)[C@H](Cc2ccccc2)NC(=O)[C@H]([C@@H](C)O)NC(=O)[C@H](CC(=O)O)NC(=O)CNC(=O)[C@H](CCCNC(=N)N)NC(=O)[C@@H]2CCCN2C1=O` [Cyclic peptide 142, KKKA(Dab(acetyl))VPRGDTFA(C)A] (H-KKKA[Dab]VPRGDTFACA-OH; linker 5-14 via X1), the “Stability (molecule stability, residual rate of the cyclic peptide rank)” value in data set [1] is “C (The residual rate of the cyclic peptide is 30% or more and less than 50%.)”. Moreover, the Kd in data set [2] (setting [3]) was under 50 nM.
As for `CC[C@H](C)[C@@H]1NC(=O)[C@@H](NC(=O)CNC(=O)[C@H](CCCCN)NC(=O)[C@H](CCCCN)NC(=O)[C@@H](N)CCCCN)C(C)(C)SCC(=O)NC[C@@H](C(=O)N[C@@H](C)C(=O)O)NC(=O)[C@H](CCCNC(=N)N)NC(=O)[C@H](Cc2ccccc2)NC(=O)[C@H]([C@@H](C)O)NC(=O)[C@H](CC(=O)O)NC(=O)CNC(=O)[C@H](CCCNC(=N)N)NC(=O)[C@@H]2CCCN2C1=O` [Cyclic peptide 128, KKKG-(Pen)-IPRGDTFR(Dap(acetyl))A] (H-KKKG[Pen]IPRGDTFR[Dap]A-OH; linker 5-14 via X2), in data set [1], the “Stability (molecule stability, residual rate of the cyclic peptide rank)” value was “B (The residual rate of the cyclic peptide is 50% or more and less than 70%.)”. Besides, in data set [2] (setting [3]), the Kd is under 50 nM.
As to `CC[C@H](C)[C@@H]1NC(=O)[C@@H](NC(=O)CNC(=O)[C@H](CCCCN)NC(=O)[C@H](CCCCN)NC(=O)[C@@H](N)CCCCN)CCSCC(=O)NC[C@@H](C(=O)N[C@@H](C)C(=O)O)NC(=O)[C@H](CCCNC(=N)N)NC(=O)[C@H](Cc2ccccc2)NC(=O)[C@H]([C@@H](C)O)NC(=O)[C@H](CC(=O)O)NC(=O)CNC(=O)[C@H](CCCNC(=N)N)NC(=O)[C@@H]2CCCN2C1=O` [Cyclic peptide 114, KKKG-(Hcy)-IPRGDTFR(Dap(acetyl))A] (H-KKKG[hCys]IPRGDTFR[Dap]A-OH; linker 5-14 via X2), the “Stability (molecule stability, residual rate of the cyclic peptide rank)” value in data set [1] is “B (The residual rate of the cyclic peptide is 50% or more and less than 70%.)”. In addition, in data set [2] (setting [3]), the Kd is under 50 nM.
